Results published in patent publication US10695321B2, “Use of glycopyrrolate for treating tachycardia” (Heptares Therapeutics Limited, priority 2011, dated 2020).

Assay: Sealed storage of micronised glycopyrrolate batches, physical changes and repeated particle sizing
Format: physicochemical
Conditions: sealed storage for several weeks
From the text: Batches of micronised glycopyrrolate were obtained and, following sealed storage for several weeks, the physical changes of the material from fine cohesive powders to solid agglomerates were observed.
The following section summarises the tests conducted on reported batches of glycopyrrolate received following micronisation: […]

| SMILES | Physical state of powder on storage | d50 on repeated particle sizing on storage (micronised powder) |
| --- | --- | --- |
| C[N+]1(C)CCC(OC(=O)C(O)(c2ccccc2)C2CCCC2)C1 (centres unmarked) [Remicronised Batch C, glycopyrrolate] | only soft lumps of material were found in bulk powder | – |
| C[N+]1(C)CCC(OC(=O)C(O)(c2ccccc2)C2CCCC2)C1 (centres unmarked) [Batch C, glycopyrrolate] | large hard lumps of material were found in bulk powder | 51 μm |
| C[N+]1(C)CCC(OC(=O)C(O)(c2ccccc2)C2CCCC2)C1 (centres unmarked) [Batch A, glycopyrrolate] | soft lumps of material were found in bulk powder | – |
| C[N+]1(C)CCC(OC(=O)C(O)(c2ccccc2)C2CCCC2)C1 (centres unmarked) [Batch B, glycopyrrolate] | large hard lumps of material were found | – |
